The results in this text go back to US20210169690A1, “Self-Retaining Implantable Drug Delivery Device” (GoldenBiotech, LLC, priority 2019, published 2021).

Data set [1] is described as follows: Higuchi equation analysis of drug release data. In kind it is physicochemical. The procedure:
In order to ascertain whether the mechanism of drug release was based on diffusion, data obtained from various coated silicone polymer matrices were analyzed using the Higuchi equation. This analysis determined the linearity between the cumulative amount of drug released and the square root of time (SQRT). […] As exemplified FIG. 10, data is plotted as the square root of time taken on the x-axis and the cumulative percentage of drug release on the y-axis.

The nature of data set [2]: Chemical stability of prostaglandin analogues in PBS, RPHPLC. The note with it: PBS at pH 4, 7 and 10; 4° C., 33° C. and 50° C. In kind it is physicochemical. The method, then: The chemical stability of prostaglandin analogues was also examined. In these experiments, a prostaglandin analogue was incubated in phospho-buffered saline (PBS) at pH 4, 7 and 10 and at 4° C., 33° C. and 50° C. representing long term storage, eye temperature and accelerate temperature conditions respectively. Analyses were performed by RPHPLC as described in Example 2, noting any hydrolysis products formed. […] This stability is most likely due to the amide linkage in Bimatoprost which is much more hydrolytically stable than the ester linkage in Latanoprost and Travoprost.

Turning to `CC(C)OC(=O)CCC/C=C\C[C@@H]1[C@@H](/C=C/[C@@H](O)COc2cccc(C(F)(F)F)c2)[C@H](O)C[C@@H]1O` [Travoprost], the entries for the “Average Linear Regression r^2 Value, Higuchi Equation Analysis” value in data set [1] (Drug Loading 2.5%), in data set [1] (Drug Loading 5%) and in data set [1] (Drug Loading 10%) were 0.976, 0.972 and 0.941, respectively. Besides, the “chemical stability (hydrolysis products)” value in data set [2] is recorded as “excellent stability”.
